Activity calls are given as the source filed them.
Columns and labels:
[1] = blockade of melanocortin 4 receptor signaling – cell-based, plate reader, cherry pick, counter-screen for LGR2 antagonist project, dose response (AID 743444); type: functional;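 further: transfected HEK 293 cells stimulated with alpha-MSH peptide; potency of inhibitors of the alpha-MSH evoked signal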
[2] = antiviral protection against BTV-induced cell death – arbovirus, BSR cells, confirmation (AID 1250); type: functional;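 further: protection from viral cytopathic effect measured as cell viability by ATP luminescence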
[3] = toxicity toward HepG2 liver cells – cell-based, plate reader, cherry-pick, antagonist series, cytotoxicity control, dose response (AID 743416); type: functional
[4] = blockers of bursicon-stimulated LGR2 cAMP reporter – cell-based, HEK293, CRE-luciferase reporter, cherry pick, set 2, dose response (AID 743343); type: functional;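 further: transfected cells were stimulated with diluted bursicon conditioned medium after compound addition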
[5] = viability loss in HEK293 cells – cell-based, plate reader, cherry-picked samples, cytotoxicity control, dose response (AID 743446); type: functional
[6] = molecular target: T1, Estrogen receptor (Homo sapiens, UniProt P03372); assay: blockers of SRC-3 recruitment to ERα – biochemical, ELISA, streptavidin-HRP readout, orthogonal assay, confirmation (AID 1079)
T1 sequence (P03372 whole entry): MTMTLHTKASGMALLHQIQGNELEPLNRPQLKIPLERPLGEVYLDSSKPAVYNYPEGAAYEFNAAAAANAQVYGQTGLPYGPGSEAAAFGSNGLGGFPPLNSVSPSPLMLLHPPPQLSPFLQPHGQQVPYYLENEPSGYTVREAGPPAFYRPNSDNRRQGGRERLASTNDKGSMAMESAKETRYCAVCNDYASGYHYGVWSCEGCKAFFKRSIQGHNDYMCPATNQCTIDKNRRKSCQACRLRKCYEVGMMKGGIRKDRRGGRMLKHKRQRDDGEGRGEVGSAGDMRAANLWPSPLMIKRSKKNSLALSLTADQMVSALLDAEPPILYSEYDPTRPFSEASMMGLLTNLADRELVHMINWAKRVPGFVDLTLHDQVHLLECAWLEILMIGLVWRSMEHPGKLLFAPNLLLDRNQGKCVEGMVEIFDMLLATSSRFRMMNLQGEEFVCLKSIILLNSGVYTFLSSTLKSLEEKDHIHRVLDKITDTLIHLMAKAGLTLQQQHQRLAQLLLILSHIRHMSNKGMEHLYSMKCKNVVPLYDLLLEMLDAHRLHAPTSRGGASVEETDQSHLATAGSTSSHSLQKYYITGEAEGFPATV

[7] = molecular target: T1, Estrogen receptor
[8] = molecular target: T2, Carboxy-terminal domain RNA polymerase II polypeptide A small phosphatase 1 (Homo sapiens, UniProt Q9GZU7); assay: CTDSP1 inhibitors, concentration-response, biochemical, absorbance readout, ultra-high-throughput screen actives (AID 540297); type: functional
T2 sequence (Q9GZU7 whole entry): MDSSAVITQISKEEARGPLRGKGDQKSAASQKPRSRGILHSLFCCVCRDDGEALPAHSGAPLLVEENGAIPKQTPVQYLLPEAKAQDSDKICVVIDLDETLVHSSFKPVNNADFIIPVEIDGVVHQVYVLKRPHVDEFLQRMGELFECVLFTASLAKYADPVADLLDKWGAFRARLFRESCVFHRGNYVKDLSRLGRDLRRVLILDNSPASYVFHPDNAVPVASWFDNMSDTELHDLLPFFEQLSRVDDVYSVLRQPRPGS

[9] = Luminescence-based counterscreen assay for KLF5 inhibitors: dose response cell-based high throughput screening assay to identify cytotoxic compounds using the IEC-6 intestinal epithelial cell line. [Related pubchem assays: 1700 (Primary screen.), 1834 (Confirmation screen.), 1858 (Summary AID.), 1905 (Counterscreen.)]; type: functional
[10] = alpha-synuclein stem-loop translation blockers – luminescence, H4 neuroglioblastoma cells, dose confirmation, confirmation (AID 2454); type: functional, cell-based;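 further: H4 neuroglioblastoma cells carrying an alpha-synuclein 5'UTR luciferase reporter; potency for inhibition of the luciferase signal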
[11] = luciferase reporter signal reduction – luminescence, H4-C neuroglioblastoma cells, dose response (AID 2458); type: functional, cell-based;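 further: H4 neuroglioblastoma cells stably carrying a luciferase reporter gene fusion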
[12] = off-target signal loss in HeLa-CEM21 co-culture – HeLa F-luc CTL cells, cherry-picked, counter-screen for HIV-1 Env fusion inhibitor project, dose response (AID 652040); type: functional, cell-based;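 further: potency for signal decrease marking cytotoxic or nonspecific inhibition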
[13] = PAX8-dependent cell viability loss – plate reader, dry powder, dose response (AID 743049); type: functional, cell-based
[14] = COV362 cell viability loss – plate reader, dry powder, SA12, cytotoxicity control for PAX8 inhibitor project, dose response (AID 743144); type: functional, cell-based
[15] = PAX5 cellular inhibition readout – cell-based, plate reader, dry powder samples, selectivity assay for PAX8 inhibitor project, dose response (AID 743047); type: functional;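 further: HEK293 cells carrying a Pax5 driven CD19 promoter luciferase reporter; potency of inhibitors that lower reporter luminescence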
[16] = molecular target: T3, Microphthalmia-associated transcription factor (Homo sapiens, UniProt O75030); assay: reducers of TRPM1 reporter luminescence, concentration series – cell-based, SK-MEL-5, cherry-picked, set 3, MITF inhibitor project, dose response (AID 493073); type: functional;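 further: SK-MEL-5 melanoma cells with luciferase driven by the MITF target TRPM1 promoter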
T3 sequence (O75030 whole entry): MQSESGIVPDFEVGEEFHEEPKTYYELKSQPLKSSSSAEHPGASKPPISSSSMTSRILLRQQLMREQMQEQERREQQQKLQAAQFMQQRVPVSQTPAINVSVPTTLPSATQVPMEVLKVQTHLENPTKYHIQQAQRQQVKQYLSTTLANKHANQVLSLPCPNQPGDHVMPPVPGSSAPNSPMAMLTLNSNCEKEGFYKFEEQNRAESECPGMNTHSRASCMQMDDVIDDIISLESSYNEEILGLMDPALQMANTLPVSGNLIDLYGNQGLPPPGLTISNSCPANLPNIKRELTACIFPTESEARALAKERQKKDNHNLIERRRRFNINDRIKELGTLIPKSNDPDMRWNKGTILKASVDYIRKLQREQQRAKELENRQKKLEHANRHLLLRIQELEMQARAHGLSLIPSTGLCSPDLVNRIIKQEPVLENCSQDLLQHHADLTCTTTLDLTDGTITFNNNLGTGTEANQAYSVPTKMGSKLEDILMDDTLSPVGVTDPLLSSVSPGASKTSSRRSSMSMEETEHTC

[17] = molecular target: Paired box protein Pax-8 (Homo sapiens, UniProt Q06710); assay: PAX8 transcriptional activity inhibition in RMG-I – RMG-I cells, luciferase, cherry-pick, dose response (AID 687027); type: functional, cell-based;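 further: luciferase reporter driven by Pax8 target thyroperoxidase promoter measured by SteadyGlo luminescence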
[18] = alpha-synuclein stem-loop luciferase translation blockers – H4 neuroglioma cells, luminescence, confirmation (AID 1988); type: functional, cell-based
[19] = inhibitors acting on PAX2 in cells – cell-based, plate reader, dry powder samples, selectivity assay for PAX8 inhibitor project, dose response (AID 743048); type: functional;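 further: HEK293 cells carrying a WT1 promoter luciferase reporter driven by expressed Pax2; potency is for inhibition of Pax2 driven reporter signal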
[20] = blockers of HIV-1 envelope-mediated cell-cell fusion – cherry-pick, dose response (AID 652057); type: functional, cell-based
[21] = HIV-1 AD8 envelope cell-cell fusion blockers – cherry-pick, dose response (AID 652062); type: functional, cell-based;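 further: luciferase signal from cell-cell fusion driven by HIV-1 clade B AD8 Env; potency is for inhibitors of fusion seen as a drop in luminescence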
[22] = cells; type: functional, cell-based
[23] = blockers of HIV-1 ZM109 envelope-driven cell-cell fusion – HeLa effector, CEM target cells, luciferase, cherry-pick, dose response (AID 652058); type: functional, cell-based;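 further: luciferase signal from HIV-1 Env mediated cell-cell fusion of effector and target cells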
[24] = molecular target: T4, Eukaryotic translation initiation factor 2-alpha kinase 3 (Homo sapiens, UniProt Q9NZJ5); assay: Dose response cell-based high-throughput screening assay to measure PERK inhibition. [Related pubchem assays: 1416 ]; type: functional
[25] = molecular target: T4, Eukaryotic translation initiation factor 2-alpha kinase 3; assay: Counterscreen assay for PERK inhibitors: Dose response cell-based high throughput screening assay to measure inhibition of PERK at 6 hours. [Related pubchem assays: 1522, 1416 ]; type: functional

T4 sequence (Q9NZJ5 whole entry): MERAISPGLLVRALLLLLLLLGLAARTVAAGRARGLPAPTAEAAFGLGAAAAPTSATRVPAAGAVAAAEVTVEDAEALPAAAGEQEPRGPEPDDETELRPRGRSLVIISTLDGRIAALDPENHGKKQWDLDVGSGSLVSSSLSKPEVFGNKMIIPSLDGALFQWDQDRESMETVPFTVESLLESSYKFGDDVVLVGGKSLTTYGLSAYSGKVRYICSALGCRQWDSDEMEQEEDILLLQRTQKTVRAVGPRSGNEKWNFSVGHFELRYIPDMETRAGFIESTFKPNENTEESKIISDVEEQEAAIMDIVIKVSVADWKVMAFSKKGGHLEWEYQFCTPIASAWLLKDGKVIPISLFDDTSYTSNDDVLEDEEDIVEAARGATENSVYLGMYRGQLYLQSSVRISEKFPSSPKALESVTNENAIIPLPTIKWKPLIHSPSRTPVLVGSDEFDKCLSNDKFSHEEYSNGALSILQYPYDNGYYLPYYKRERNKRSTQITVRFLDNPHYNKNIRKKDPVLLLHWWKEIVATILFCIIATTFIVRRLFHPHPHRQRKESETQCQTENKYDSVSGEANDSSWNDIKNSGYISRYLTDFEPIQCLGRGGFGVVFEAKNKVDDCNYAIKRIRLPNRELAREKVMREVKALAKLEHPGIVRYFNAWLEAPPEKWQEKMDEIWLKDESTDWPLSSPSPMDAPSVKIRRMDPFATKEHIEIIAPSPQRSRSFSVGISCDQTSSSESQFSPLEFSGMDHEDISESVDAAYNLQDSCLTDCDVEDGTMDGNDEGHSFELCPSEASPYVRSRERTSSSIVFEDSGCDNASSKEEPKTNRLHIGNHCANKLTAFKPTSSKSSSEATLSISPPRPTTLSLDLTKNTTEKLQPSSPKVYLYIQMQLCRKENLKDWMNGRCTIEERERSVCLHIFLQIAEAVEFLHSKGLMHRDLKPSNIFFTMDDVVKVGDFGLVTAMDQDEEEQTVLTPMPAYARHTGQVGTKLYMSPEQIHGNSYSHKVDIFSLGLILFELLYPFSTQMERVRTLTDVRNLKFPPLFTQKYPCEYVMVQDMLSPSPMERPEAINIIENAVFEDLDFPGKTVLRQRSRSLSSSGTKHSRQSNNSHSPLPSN
Sequence of Paired box protein Pax-8 (Q06710 whole entry): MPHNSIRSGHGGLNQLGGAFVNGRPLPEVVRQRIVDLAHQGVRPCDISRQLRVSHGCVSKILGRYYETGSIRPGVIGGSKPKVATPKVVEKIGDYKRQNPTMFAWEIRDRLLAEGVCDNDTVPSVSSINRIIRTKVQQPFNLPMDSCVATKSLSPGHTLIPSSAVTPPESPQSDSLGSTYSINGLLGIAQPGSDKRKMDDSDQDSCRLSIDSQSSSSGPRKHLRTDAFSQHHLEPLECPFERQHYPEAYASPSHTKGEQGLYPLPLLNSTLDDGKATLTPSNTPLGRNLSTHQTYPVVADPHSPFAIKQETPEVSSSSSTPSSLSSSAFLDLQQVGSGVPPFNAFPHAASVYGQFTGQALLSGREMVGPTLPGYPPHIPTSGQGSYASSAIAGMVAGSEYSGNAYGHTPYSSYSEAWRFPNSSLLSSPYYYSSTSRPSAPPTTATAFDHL

## COc1ccc(-c2csc(NC(=O)c3ccc(OCC(=O)N4CCOCC4)c(OC)c3)n2)cc1
[1]
  AC50: 22.4 µM (active)
[2]
  IC50: 27.5 µM (active)
[3]
  AC50: > 52 µM (inactive)
[4]
  AC50: 18.4 µM (active)
[5]
  AC50: 43.1 µM (active)

## O=C(CCCn1c(=S)[nH]c2ccccc2c1=O)N1CCN(Cc2cccc3ccccc23)CC1
[6]
  IC50: 0.17 µM (not active)

## CCCN(CCC)S(=O)(=O)c1ccc(NC(=O)Cc2cccs2)cc1
[7]
  IC50: 16.7 µM (active)
[8]
  IC50: 9.83 µM (active)

## Cc1ccccc1OCC(=O)Nc1cccc(C(=O)O)c1
[1]
  AC50: 1.05 µM (active)
[9]
  IC50: > 39.8 µM (not active)
[10]
  EC50: 0.393 µM (active)
[11]
  EC50: 0.541 µM (active)
[12]
  AC50: 0.951 µM (active)
[13]
  AC50: > 100 µM (inactive)
[14]
  AC50: > 100 µM (inactive)
[15]
  AC50: 3.76 µM (active)
[16]
  AC50: 1.05 µM (active)
[17]
  AC50: 2.3 µM (active)
[18]
  EC50: < 0.1 µM (active)
[4]
  AC50: 0.669 µM (active)
[19]
  AC50: 3.61 µM (active)
[20]
  AC50: 0.342 µM (active)
[21]
  AC50: 1.27 µM (active)
[22]
  EC50: 0.725 µM (active)
[23]
  AC50: 7.82 µM (active)

## Oc1cnnc(N/N=C/c2cccs2)n1
[24]
  EC50: > 55.7 µM (not active)
[25]
  EC50: > 55.7 µM (not active)
